{"source": "patent US20140154346A1", "about": "“USE OF FENUGREEK EXTRACT TO ENHANCE FEMALE LIBIDO” (GE NUTRIENTS, INC., priority 2012, published 2014)", "origin": "cited, not measured here", "test_system": "women with hypoactive sexual disorder", "conditions": "300 μg/day, 12 months; also increase in desire and decrease in stress", "data": [{"smiles": "C[C@]12CC[C@H]3[C@@H](CCC4=CC(=O)CC[C@@]43C)[C@@H]1CC[C@@H]2O", "note": "[testosterone]", "values": [{"measurement": "frequency of satisfying sexual encounters", "value": "increased frequency"}]}]}
